Measurements as given in the supplement of paper PMC10307832.

Assays:
Test in all cases: relative viability (nuclei count vs DMSO), 5 days (fraction); higher = more cells survive
NCI-H1792 = test system: NCI-H1792
Summary of the method: (§1)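 One day after seeding in 1536-well plates, lung cancer cell lines were dosed by pin tool. Dosing was either single-drug or a fixed anchor-drug dose plus five library-drug doses (not always all listed) in √10 steps. After 5 days, nuclei were stained in one fix-and-stain step and counted on 4× images, and relative viability is the nuclei count of treated wells over that of vehicle wells, given as the median of duplicate plates.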

NCI-H1915 = test system: NCI-H1915
Summary of the method: as §1

NCI-H2085 = test system: NCI-H2085
Summary of the method: as §1

NCI-H2170 = test system: NCI-H2170
Summary of the method: as §1

NCI-H1944 = test system: NCI-H1944
Summary of the method: as §1

HCC-366 = test system: HCC-366
Summary of the method: as §1

LC-2-ad = test system: LC-2-ad
Summary of the method: as §1

A-427 = test system: A-427
Summary of the method: as §1

HCC-78 = test system: HCC-78
Summary of the method: as §1

SK-LU-1 = test system: SK-LU-1
Summary of the method: as §1

EPLC-272H = test system: EPLC-272H
Summary of the method: as §1

O=c1cc(-c2cccc3c2Sc2ccccc2S3)oc(N2CCOCC2)c1 + COc1cccc2cc(-c3nc([C@H]4CC[C@H](C(=O)O)CC4)n4ncnc(N)c34)[nH]c12 [OSI-027] (partner 0.5 µM)
relative viability (NCI-H1792; first compound 0.08 µM): 0.775 | relative viability (NCI-H1792; first compound 0.253 µM): 0.803 | relative viability (NCI-H1792; first compound 0.8 µM): 0.663 | relative viability (NCI-H1792; first compound 2.53 µM): 0.647 | relative viability (NCI-H1792; first compound 8 µM): 0.581 | relative viability (NCI-H1915; first compound 0.08 µM): 0.608 | relative viability (NCI-H1915; first compound 0.253 µM): 0.677 | relative viability (NCI-H1915; first compound 0.8 µM): 0.699 | relative viability (NCI-H1915; first compound 2.53 µM): 0.575 | relative viability (NCI-H1915; first compound 8 µM): 0.678 | relative viability (NCI-H2085; first compound 0.08 µM): 0.635 | relative viability (NCI-H2085; first compound 0.253 µM): 0.88 | relative viability (NCI-H2085; first compound 0.8 µM): 0.695 | relative viability (NCI-H2085; first compound 2.53 µM): 0.512 | relative viability (NCI-H2085; first compound 8 µM): 0.525 | relative viability (NCI-H2170; first compound 0.08 µM): 0.78 | relative viability (NCI-H2170; first compound 0.253 µM): 0.801 | relative viability (NCI-H2170; first compound 0.8 µM): 0.727 | relative viability (NCI-H2170; first compound 2.53 µM): 0.508 | relative viability (NCI-H2170; first compound 8 µM): 0.717 | relative viability (NCI-H1944; first compound 0.08 µM): 0.376 | relative viability (NCI-H1944; first compound 0.253 µM): 0.403 | relative viability (NCI-H1944; first compound 0.8 µM): 0.367 | relative viability (NCI-H1944; first compound 2.53 µM): 0.34 | relative viability (NCI-H1944; first compound 8 µM): 0.38 | relative viability (HCC-366; first compound 0.08 µM): 0.89 | relative viability (HCC-366; first compound 0.253 µM): 1.2 | relative viability (HCC-366; first compound 0.8 µM): 0.692 | relative viability (HCC-366; first compound 2.53 µM): 0.723 | relative viability (HCC-366; first compound 8 µM): 0.775 | relative viability (LC-2-ad; first compound 0.08 µM): 0.814 | relative viability (LC-2-ad; first compound 0.253 µM): 0.934 | relative viability (LC-2-ad; first compound 0.8 µM): 0.792 | relative viability (LC-2-ad; first compound 2.53 µM): 0.741 | relative viability (LC-2-ad; first compound 8 µM): 0.727 | relative viability (A-427; first compound 0.08 µM): 0.48 | relative viability (A-427; first compound 0.253 µM): 0.48 | relative viability (A-427; first compound 0.8 µM): 0.573 | relative viability (A-427; first compound 8 µM): 0.475 | relative viability (HCC-78; first compound 0.08 µM): 0.341 | relative viability (HCC-78; first compound 0.253 µM): 0.385 | relative viability (HCC-78; first compound 0.8 µM): 0.295 | relative viability (HCC-78; first compound 2.53 µM): 0.344 | relative viability (HCC-78; first compound 8 µM): 0.339 | relative viability (SK-LU-1; first compound 0.08 µM): 0.322 | relative viability (SK-LU-1; first compound 0.253 µM): 0.375 | relative viability (SK-LU-1; first compound 0.8 µM): 0.335 | relative viability (SK-LU-1; first compound 2.53 µM): 0.364 | relative viability (SK-LU-1; first compound 8 µM): 0.301 | relative viability (EPLC-272H; first compound 0.08 µM): 0.254 | relative viability (EPLC-272H; first compound 0.253 µM): 0.279 | relative viability (EPLC-272H; first compound 0.8 µM): 0.254 | relative viability (EPLC-272H; first compound 2.53 µM): 0.251 | relative viability (EPLC-272H; first compound 8 µM): 0.278
